The nature of this series: Pharmacokinetics of PA-96 after single oral (p.o.) administration to mice. The class given is in vivo, CD-1 mice. The note with it: for Tmax / bioavailability / Cmax / half-life / AUC(0-t) / Vd/F: both sexes, CD-1, mouse, whole blood; for Tmax / Cmax / half-life / AUC(0-t) / Vd/F: po; for bioavailability: oral, assessed via AUC of i.v. injection at 1 mg/kg; for Vd/F: read-out: Vz/F_obs. How it is done: After the development and validation of the method for determination of PA-96 in mice blood, a preliminary pharmacokinetic study was carried out. The agent PA-96 was administered to two mice per os as a suspension in Tween-80 at a dose of 10 mg/kg, and blood samples were taken from the animals at 0.5, 1, 1.5, 2, 2.5, 3, 3.5, 4, 5, 5.5, and 24 h after administration. Four 10 µL samples were taken at each timepoint: two were spotted onto the paper and dried, and two others were precipitated using the ZnSO4 solution. All prepared samples were analysed, and the graph representing the PA-96 peak area values was plotted (Figure 6). […] As such, the PPT method for whole blood samples was chosen for the next experiments.
After administration, blood samples were taken from the tail vein of each animal at 5, 10, 20, 30, 40, 50, 60, 75, 90, 120, and 150 min, and the samples were prepared following the PPT protocol.
The LC–MS/MS analysis was carried out using a Shimadzu LC-20AD Prominence chromatograph equipped with a cooling autosampler, binary gradient pump, and column oven (Shimadzu, Japan) coupled with a 3200 QTRAP mass spectrometer (AB SCIEX, Framingham, MA, USA) equipped with an electrospray ionisation source (ESI). The mass spectrometer worked in positive mode and multiple reaction monitoring (MRM) detection mode for quantitation. Analyst 1.6.2 software (AB SCIEX, Framingham, MA, USA) was used for instrument control and data acquisition, and MultiQuant 2.1 software (AB SCIEX, Framingham, MA, USA) was used for quantitation. To calculate the main pharmacokinetic parameters, the Microsoft Excel plugin PKSolver was used.
CD-1 mice (male and female) were obtained from the SPF vivarium of the Institute of Cytology and Genetics, Russia. The mice weighed 25–30 g at the beginning of the experiment.
An accurately weighed amount of PA-96 was mechanically mixed with Tween-80 using a mortar and pestle followed by suspending the obtained sample in physiological solution. The animals (n = 2) received a single dose of 10 mg/kg per os (p.o.). The timepoints were 0.5, 1, 1.5, 2, 2.5, 3, 3.5, 4, 5, 5.5, and 24 h. At each timepoint, 10 µL of blood was taken from the tail vein, and the sample was prepared by DBS and PPT with ZnSO4 in methanol. Afterwards, the samples were analysed in accordance with the HPLC–MS/MS protocol.
In the next experiment, the sampling scheme was optimised by changing the timepoints as follows: 5, 10, 20, 30, 40, 50, 60, 75, and 90 min, and 2, 2.5, 3, 3.5, 4, and 5 h; this was in order to investigate the pharmacokinetics more thoroughly. The experiment design was not changed, but the sample preparation was carried out by the PPT method exclusively.
In order to investigate the bioavailability and dose proportionality, PA-96 was administered p.o. at the dosages of 1, 5, and 10 mg/kg and intravenously (i.v.) at the dosages of 1 and 10 mg/kg. For each experiment, we used 6–7 mice. The blood was drawn from the tail vein at the following timepoints: 3, 5, 10, 15, 30, 45, 60, 90, 120, and 150 min. The samples were prepared and analysed.

Where [1] appears, read: 5 mg/kg, single p.o., mice, mean ± SEM, n = 4.
Where [2] appears, read: 10 mg/kg, single p.o., mice, mean ± SEM, n = 4.
The mark [3] stands for this setting: single p.o., 5 mg/kg, mice, mean ± SEM, n = 4.
[4] abbreviates: single p.o., 10 mg/kg, mice, mean ± SEM, n = 4.

We go through one molecule from PMC11434290, “Pharmacokinetics and Dose Proportionality Study of a Novel Antiparkinsonian Agent, a 1H-1,2,4-Triazol-3-ylthio-conjugate of Prottremine” (Molecules, 2024).

Like-named read-outs stand apart in the source and are kept apart here.

`C=C(C)[C@@H]1CC=C(C)[C@@H](Sc2nc[nH]n2)[C@@H]1O` [PA-96]: the Tmax runs as follows: (single p.o., 5 mg/kg, mice, mean ± SEM, n = 4, read-out: Tmax (converted)) 6.3 min; (single p.o., 10 mg/kg, mice, mean ± SEM, n = 4, read-out: Tmax (converted)) 8.8 min; (p.o. doses of 5 mg/kg and 10 mg/kg, mice, read-out: Time of maximum concentration after administration) 5 to 10 min. The bioavailability (p.o. 5 mg/kg, mice) is around 7% and the bioavailability (p.o. 10 mg/kg, mice) was around 35%. Besides, the Cmax was around 36 ng/mL under setting [1] and around 588 ng/mL under setting [2]. Also, the half-life under setting [1] turned out to be 44 ± 13 min and the half-life under setting [2] turned out to be 15 min. Further, the AUC(0-t) runs as follows: under setting [3], 28.3 ng·h/mL; under setting [4], 300 ng·h/mL. For the same molecule, the Vd/F reads like this: under setting [3], 190 L/kg; under setting [4], 13.7 L/kg. Besides, the “Signal (concentration) in blood samples” value (p.o. 1 mg/kg, n = 2, mice, LLOQ 25 ng/mL) is “lower than the LLOQ”. Further, the “Time of complete elimination at oral administration” value (p.o. 5 and 10 mg/kg, mice) is 2.5 to 3 h. Further, the “Increase in both Cmax and AUC on twofold increase in the dose” value (p.o. 5 vs 10 mg/kg, mice) is listed as “by an order of magnitude”. For the same molecule, the “Time of complete elimination” value (preliminary study, p.o. 10 mg/kg, n = 2 mice) is reported as 2.5 h. Besides, for the setting “preliminary study, p.o. 10 mg/kg, n = 2 mice, first timepoint sampled”, the “Timepoint of maximum concentration” value came to 30 min. Moreover, the t1/2 under setting [4] is given as 15.2 ± 1.2 min.
